Experimental data as given in patent US7018836B1, “P-TEFb compositions, methods and screening assays” (priority 1996, dated 2006).

What was measured:
[1] = tested on: transcription from HIV-1 LTR; assay: In vitro Tat transactivation in HNE with TAR and DTAR templates (FIG. 8); assay type: biochemical, human
Protocol: The transcription template (Nco I-digested pLTR-4/CAT vector containing the HIV-1 LTR from −153 to +80) was used in a pulse-chase transcription experiment. Reactions (12 μl total; 20 mM HEPES, pH 7.6, 7 mM MgCl2, 20 μg/ml DNA template, 3 μl HNE, 64 mM KCl, with 50 μM DRB or 0.3 μl Drosophila P-TEFb (Marshall et al., 1996) as indicated) were pre-incubated for 20 minutes at 30° C., pulsed for 2 minutes by adding ATP, GTP, UTP to 600 μM each and 5 μCi [α-^32P]CTP (˜0.1 mM), and chased for 5 minutes by adding CTP to 1.2 mM. Reactions were stopped, phenol extracted and analyzed on a 6% polyacrylamide gel as described (Marshall and Price, 1995). pLTR-TAR-Luc and pLTR-DTAR-Luc plasmids were digested with Eco RI to generate TAR and DTAR template that were used in the studies. The TAR template contains HIV-1 LTR from −475 to +76, while the DTAR template contains HIV-1 LTR from −475 to +19. Transcription with TAR and DTAR templates generates runoffs of 694 and 646 nucleotides, respectively. The transcription reaction mix contained 20 mM HEPES (pH7.6), 7 mM MgCl2, 60 mM KCl, 0.5 μl HNE (or depHNE as indicated), 20 μg/ml TAR template (or DTAR template as indicated), indicated amount of HIV-1 Tat (86 residue HIV-1 Tat followed by a streptavidin binding tag at its carboxyl terminus) and DRB. […] The transcripts were then analyzed on a 6% polyacrylamide gel as described (Marshall and Price, 1995).

P-TEFb = assay: Phosphorylation by P-TEFb of RNA polymerase II in high salt washed early elongation complexes (western blot); assay type: biochemical, Drosophila; details: 20 μM DRB
[2] = tested on: CTD kinase found in the preinitiation complex; assay: Phosphorylation of RNA polymerase II in isolated preinitiation complexes (western blot); assay type: biochemical, Drosophila; details: 20 μM DRB
Protocol: Preinitiation complexes were formed on an immobilized actin template digested with HpaII (780 nt runoff) as described in Marshall and Price (Marshall and Price, 1992). The preinitiation complexes were isolated, washed once with 55 mM HKB (20 mM HEPES, 55 mM KCl and 200 μg/ml BSA) and resuspended into 55 mM HKB. Transcription was initiated by the addition of a pulse solution, which contained 5 μCi of [α-^32P]CTP and brought the reaction mixture to 600 μM in ATP, GTP and UTP and 2 mM MnCl2. MnCl2 increased the rate of initiation of preinitiation complexes, thereby, increasing the number of polymerases in early elongation complexes after a short pulse. After 15 seconds the reaction was stopped by the addition of EDTA to 10 mM.
Preinitiation complexes were formed on an immobilized actin template as described above in Methods, Section 3. […] Incubation of the preinitiation complexes with ATP caused a significant shift of the polymerase to the IIo form. The antibodies used to detect the large subunit of RNA polymerase II reacted more strongly with the […] of the large subunit than either the phosphorylated IIo form or the truncated IIb form. This phosphorylation was unaffected by the presence of 20 μM DRB.

[3] = tested on: mammalian cells in culture; details: DRB added to mammalian cells in culture; cited from earlier work
[4] = tested on: runoff transcription from HIV-1 LTR in HNE (human P-TEFb); assay: Transcription of HIV LTR template in HeLa nuclear extract (HNE), 633-nt runoff (FIG. 7A); assay type: biochemical; details: for IC50: HNE, HIV LTR template, read-out: 50% inhibition point, transcription assay
Protocol: The transcription template (Nco I-digested pLTR-4/CAT vector containing the HIV-1 LTR from −153 to +80) was used in a pulse-chase transcription experiment. Reactions (12 μl total; 20 mM HEPES, pH 7.6, 7 mM MgCl2, 20 μg/ml DNA template, 3 μl HNE, 64 mM KCl, with 50 μM DRB or 0.3 μl Drosophila P-TEFb (Marshall et al., 1996) as indicated) were pre-incubated for 20 minutes at 30° C., pulsed for 2 minutes by adding ATP, GTP, UTP to 600 μM each and 5 μCi [α-^32P]CTP (˜0.1 mM), and chased for 5 minutes by adding CTP to 1.2 mM. Reactions were stopped, phenol extracted and analyzed on a 6% polyacrylamide gel as described (Marshall and Price, 1995). pLTR-TAR-Luc and pLTR-DTAR-Luc plasmids were digested with Eco RI to generate TAR and DTAR template that were used in the studies. The TAR template contains HIV-1 LTR from −475 to +76, while the DTAR template contains HIV-1 LTR from −475 to +19. Transcription with TAR and DTAR templates generates runoffs of 694 and 646 nucleotides, respectively. The transcription reaction mix contained 20 mM HEPES (pH7.6), 7 mM MgCl2, 60 mM KCl, 0.5 μl HNE (or depHNE as indicated), 20 μg/ml TAR template (or DTAR template as indicated), indicated amount of HIV-1 Tat (86 residue HIV-1 Tat followed by a streptavidin binding tag at its carboxyl terminus) and DRB. The reaction mix was pre-incubated for 15 minutes at 30° C. and the transcription was started by adding nucleotides to final concentrations of 50 μM ATP, 50 μM GTP, 50 μM UTP, 10 μM CTP, and 5 μCi [α-^32P]CTP (˜0.1 mM), and continuously labeled for 20 minutes, or by adding nucleotides to final concentrations of 50 μM ATP, 50 μM GTP, 50 μM UTP, and 5 μCi [α-^32P]CTP (˜0.1 mM), and pulsed for 2 minutes. The reactions were stopped and reaction mix were phenol-extracted. The transcripts were then analyzed on a 6% polyacrylamide gel as described (Marshall and Price, 1995).

Drosophila TFIIH = assay: CTD kinase assay with Drosophila TFIIH; assay type: biochemical; details: 20 μM DRB
Protocol: 0.4 μl of purified RNA polymerase II and various protein samples were mixed in 18 μl of 55 mM HMK. The reaction was then initiated by the addition of 2 μl of a solution containing 2 μCi of [γ-^32P]ATP (ICN) and unlabeled ATP at 10 μM, or only unlabeled ATP at concentrations from 1 to 100 μM or other NTPs or dNTPs at concentrations of 1 to 100 μM. Reactions were incubated for the indicated times at 23° C. and then terminated with SDS loading buffer. Samples were analyzed on a 6–15% SDS polyacrylamide gel which was silver stained, dried and subjected to autoradiography if the assay contained label.
To determine whether P-TEFb was related to the protein kinase associated with TFIIH (Roy et al., 1994; Feaver et al., 1994; Cismowski et al., 1995; Serizawa et al., 1995; Shiekhattar et al., 1995), P-TEFb was compared with Drosophila TFIIH purified from Drosophila embryos by the method of Austin and Biggin (1996).

| Structure (SMILES) | effect of DRB on Tat-stimulated runoff ([1]; 50 μM DRB) | sensitivity to DRB of the effect of Tat on initiation ([1]; pulse-only protocol) | ability of P-TEFb to phosphorylate RNA polymerase II in an early elongation complex (P-TEFb) | phosphorylation of RNA polymerase II to IIo in preinitiation complexes incubated with ATP [2] | inhibition in the production of mature mRNA [3] [%] | IC50 [4] [µM] | sensitivity of CTD kinase activity of TFIIH (Drosophila TFIIH) | ratio of 50% inhibition points (H-8/DRB), transcription assay [4] |
| --- | --- | --- | --- | --- | --- | --- | --- | --- |
| OC[C@H]1O[C@@H](n2cnc3cc(Cl)c(Cl)cc32)[C@H](O)[C@@H]1O [DRB, 5,6-dichloro-1-β-D-ribofuranosylbenzimidazole] | mostly inhibited | not sensitive | inhibited | unaffected | 95 | 1 | unaffected |  |
| CNCCNS(=O)(=O)c1cccc2cnccc12 [H-8] |  |  |  |  |  | 23 |  | 23 |
